pIC50: −log10 of the molar value.
Target: LDHC (Homo sapiens, UniProt P07864)
Experiment: Coupled diaphorase assay (LDHC inhibition)
Assay type: biochemical
Details: 10 nM LDHC, 500 μM lactate, 150 μM NAD+, 3 μM resazurin, fluorescence readout of resorufin
Source text: The inhibitory properties of the compounds were investigated using a coupled enzyme assay that links the lactate dehydrogenase (LDH) reaction to the production of fluorescent resorufin by diaphorase.
Human lactate dehydrogenases (LDH) catalyze the reversible interconversion between pyruvate and lactate. LDH is capable of catalyzing both the forward (pyruvate to lactate) and the reverse (lactate to pyruvate) reaction, using either NADH or NAD+ as cofactor. The reaction proceeds in either direction dependent on various factors, such as substrate availability, the presence of necessary cofactors, temperature and pH.
The coupled assay relies on the […] of NAD+ to NADH throughout the conversion of lactate to pyruvate by LDHC. The produced NADH serves as cofactor in the diaphorase reaction, which reduces non-fluorescent resazurin to fluorescent resorufin. Therefore, the assay indirectly monitors the rate of pyruvate production. Although the consumption or formation of NADH can be directly monitored due to the intrinsic fluorescence of the molecule (excitation: 340 nm, emission: 460 nm) there are problems linked to the direct readout method. It has been shown that many compounds in chemical libraries interfere with the assay due to fluorescent properties similar to NADH. Shifting the assay to longer wavelengths by coupling the LDH reaction to the conversion of resazurin to fluorescent resorufin by diaphorase reduces this compound interference. The assay direction was thus chosen to provide a robust and reliable assay.
For the determination of IC50 values a coupled diaphorase assay was adopted from Bembenek et al. (A Fluorescence-Based Coupling Reaction for Monitoring the Activity of Recombinant Human NAD Synthetase. ASSAY and Drug Development Technologies, 2005. 3(5): 533-541). Compounds were tested in duplicates using 2-fold, 3-fold or 4-fold serial dilutions including 11 individual concentrations, starting from 5000 μM to 30 μM depending on their activity in initial tests. Positive (without compound in the presence of DMSO) and inhibition controls (oxamate, 28.7 mM final concentration in assay) or no-substrate controls representing 100% inhibition were added. Oxamate is a well characterized inhibitor of LDH that inhibits LDH enzyme activity in the mM range in vitro with high specificity (Papacostantinou et al., J. Biol. Chem. 236: 278-284, 1961). The controls allowed for the calculation of the percentage inhibition for each data point. The assay buffer consisted of 50 mM HEPES pH 7.4, 5 mM MgCl2 and 0.05% pluronic acid F-127. Enzyme solution with final concentrations of 10 nM LDHC, as well as 0.2 U/ml diaphorase was dispensed into 384-well plates (Greiner bio-one) using a CyBi®-SELMA robotic pipettor. Compound dilutions and the enzyme were incubated for at least 15 to 20 min at room temperature. Thereafter, the substrate solution was added (final concentrations: 500 μM lactate, 150 μM NAD^+, 3 μM resazurin). The reaction was quenched by the addition of a stop solution (final concentrations: 20 mM EDTA, 400 mM NaCl, 40 mM pyruvate). Fluorescence was read out after 5 min of incubation at an excitation wavelength of 560 nm and an emission wavelength of 590 nm on a BMG labtech FLUOstar OPTIMA or a Perkin Elmer Victor X plate reader. […]

Sequence of LDHC (P07864 whole entry): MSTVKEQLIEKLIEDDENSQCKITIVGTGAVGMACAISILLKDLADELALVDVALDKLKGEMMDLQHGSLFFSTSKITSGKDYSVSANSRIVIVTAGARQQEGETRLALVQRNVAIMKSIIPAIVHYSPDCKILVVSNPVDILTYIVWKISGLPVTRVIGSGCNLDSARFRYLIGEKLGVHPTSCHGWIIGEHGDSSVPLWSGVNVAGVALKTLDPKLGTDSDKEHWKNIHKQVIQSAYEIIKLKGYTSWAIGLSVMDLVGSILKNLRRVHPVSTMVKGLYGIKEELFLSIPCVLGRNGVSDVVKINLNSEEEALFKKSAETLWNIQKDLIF

Compound	pIC50
O=C1CC(c2ccc(N3CCOCC3)cc2)(c2ccsc2)NC(=O)C1Sc1ccccc1Cl (racemic) [Example 7, 3-((2-chlorophenyl)thio)-6-(4-morpholinophenyl)-6-(thiophen-3-yl)piperidine-2,4-dione]	5.00 to 6.30
O=C1CC(c2ccsc2)(c2cccc(OCC3CCCC3)n2)NC(=O)C1Sc1ccc(Cl)cc1Cl (stereo not shown) [Example 1, 6-[6-(cyclopentylmethoxy)pyridin-2-yl]-3-[(2,4-dichlorophenyl)sulfanyl]-6-(thiophen-3-yl)piperidine-2,4-dione]	4.00 to 4.30
O=C1CC(c2ccsc2)(c2cccc(OCC3CCCC3)n2)NC(=O)C1Sc1ccc(F)cc1Cl (stereo not shown) [Example 2, 3-[(2-chloro-4-fluorophenyl)sulfanyl]-6-[6-(cyclopentylmethoxy)pyridin-2-yl]-6-(thiophen-3-yl)piperidine-2,4-dione]	5.00 to 6.30
O=C1CC(c2ccsc2)(c2cccc(OCC3CCCC3)n2)NC(=O)C1Sc1cc(Cl)ccc1Cl (stereo not shown) [Example 3, 6-[6-(cyclopentylmethoxy)pyridin-2-yl]-3-[(2,5-dichlorophenyl)sulfanyl]-6-(thiophen-3-yl)piperidine-2,4-dione]	5.00 to 6.30
O=C1CC(c2ccsc2)(c2cccc(OCC3CCCC3)n2)NC(=O)C1Sc1cccc(Cl)c1Cl (stereo not shown) [Example 4, 6-[6-(cyclopentylmethoxy)pyridin-2-yl]-3-[(2,3-dichlorophenyl)sulfanyl]-6-(thiophen-3-yl)piperidine-2,4-dione]	4.00 to 4.30
O=C1CC(c2ccsc2)(c2cccc(OCC3CCCC3)n2)NC(=O)C1Sc1ccccc1Cl (stereo not shown) [Example 8, 3-((2-chlorophenyl)thio)-6-(6-(cyclopentylmethoxy)pyridin-2-yl)-6-(thiophen-3-yl)piperidine-2,4-dione]	5.00 to 6.30
O=C1NC(c2ccc(N3CCOCC3)cc2)(c2ccsc2)CC(OC(=O)c2ccncc2)=C1Sc1cc(Cl)ccc1Cl (stereo not shown) [Example 9, 5-((2,5-dichlorophenyl)thio)-2-(4-morpholinophenyl)-6-oxo-2-(thiophen-3-yl)-1,2,3,6-tetrahydropyridin-4-yl isonicotinate]	5.00 to 6.30
O=C1CC(c2ccsc2)(c2cccc(OC3COC3)n2)NC(=O)C1Sc1ccccc1Cl (stereo not shown) [Example 10, 3-((2-chlorophenyl)thio)-6-(6-(oxetan-3-yloxy)pyridin-2-yl)-6-(thiophen-3-yl)piperidine-2,4-dione]	4.30 to 5.00
O=C1CC(c2ccsc2)(c2cccc(Cc3cccc(F)c3)n2)NC(=O)C1Sc1ccccc1Cl (stereo not shown) [Example 11, 3-((2-chlorophenyl)thio)-6-(6-(3-fluorobenzyl)pyridin-2-yl)-6-(thiophen-3-yl)piperidine-2,4-dione]	5.00 to 6.30
CC(C)CCOc1cccc(C2(c3ccsc3)CC(=O)C(Sc3ccccc3Cl)C(=O)N2)n1 (stereo not shown) [Example 12, 3-((2-chlorophenyl)thio)-6-(6-(isopentyloxy)pyridin-2-yl)-6-(thiophen-3-yl)piperidine-2,4-dione]	5.00 to 6.30

More lines, now with the values ahead:

pIC50	Compound
5.00 to 6.30	O=C1CC(c2ccc(N3CCOCC3)cc2)(c2ccsc2)NC(=O)C1Sc1cc(Cl)ccc1Cl (racemic) [Example 6, 3-((2,5-dichlorophenyl)thio)-6-(4-morpholinophenyl)-6-(thiophen-3-yl)piperidine-2,4-dione]
4.30 to 5.00	O=C1CC(c2ccc(N3CCOCC3)cc2)(c2ccsc2)NC(=O)C1Sc1cc(Cl)ccc1Cl (single isomer, unassigned) [6 Enantiomer 1]
4.00 to 4.30	O=C1CC(c2ccc(N3CCOCC3)cc2)(c2ccsc2)NC(=O)C1Sc1cc(Cl)ccc1Cl (single isomer, unassigned) [6 Enantiomer 2]
5.00 to 6.30	O=C1CC(c2ccc(N3CCOCC3)cc2)(c2ccsc2)NC(=O)C1Sc1ccccc1Cl (single isomer, unassigned) [7 Enantiomer 1]
4.30 to 5.00	O=C1CC(c2ccc(N3CCOCC3)cc2)(c2ccsc2)NC(=O)C1Sc1ccccc1Cl (single isomer, unassigned) [7 Enantiomer 2]
5.00 to 6.30	O=C1CC(c2ccc(N3CCOCC3)cc2)(c2ccsc2)NC(=O)C1Sc1ccc(F)cc1Cl (stereo not shown) [Example 5, 3-((2-chloro-4-fluorophenyl)thio)-6-(4-morpholinophenyl)-6-(thiophen-3-yl)piperidine-2,4-dione]
